Legend:
FLNA = molecular target: T1, FLNA (Homo sapiens, UniProt P21333); assay: [3H]NLX competition binding to FLNA in SK-N-MC cell membranes; settings: read-out: IC50-L, inhibition of [3H]NLX binding
T1 construct: validate the use of that 5-mer peptide as a surrogate for the complete molecule in the assays carried out herein; host or cells: A7 cells

[1] = molecular target: FLNA pentamer VAKGL of SEQ ID NO: 1 (Homo sapiens, UniProt P21333); assay: [3H]NLX displacement from biotinylated VAKGL peptide; settings: Bn-VAKGL peptide; single IC50; N=4; read-out: IC50, inhibition of [3H]NLX binding
Protocol: Nonspecific binding was defined by 1 mM NTX. The reaction was terminated by addition of 1 ml of ice-cold binding medium. The [^3H]NLX-bound Bn-VAKGL was trapped by incubation with […] NeutrAvidin®-agarose (Thermo), followed by centrifugation. Following two 1.5 ml washes with PBS, the bound [^3H]NLX was determined using scintillation spectrometry. […] N=4.

[2] = tested on: α7nAChR (Aβ42-α7nAChR interaction); assay: Aβ42 affinity for α7nAChR in SK-N-MC cells; type: binding, human
Source text: Data are means±SEM. n=11 for postmortem control tissue; n=6 for SK-N-MC cells.

α7nAChR-FLNA complex [3] = molecular target: T2, α7nAChR-FLNA complex (Rattus norvegicus, UniProt A0A8I5ZV49); assay: Aβ42-induced α7nAChR-FLNA association in rat frontal cortical synaptosomes (co-immunoprecipitation/Western blot); type: cell-based
T2 construct: from tissue; host or cells: rat frontal cortex synaptosomes
T2 sequence (A0A8I5ZV49 entry or part of it, one chain of several): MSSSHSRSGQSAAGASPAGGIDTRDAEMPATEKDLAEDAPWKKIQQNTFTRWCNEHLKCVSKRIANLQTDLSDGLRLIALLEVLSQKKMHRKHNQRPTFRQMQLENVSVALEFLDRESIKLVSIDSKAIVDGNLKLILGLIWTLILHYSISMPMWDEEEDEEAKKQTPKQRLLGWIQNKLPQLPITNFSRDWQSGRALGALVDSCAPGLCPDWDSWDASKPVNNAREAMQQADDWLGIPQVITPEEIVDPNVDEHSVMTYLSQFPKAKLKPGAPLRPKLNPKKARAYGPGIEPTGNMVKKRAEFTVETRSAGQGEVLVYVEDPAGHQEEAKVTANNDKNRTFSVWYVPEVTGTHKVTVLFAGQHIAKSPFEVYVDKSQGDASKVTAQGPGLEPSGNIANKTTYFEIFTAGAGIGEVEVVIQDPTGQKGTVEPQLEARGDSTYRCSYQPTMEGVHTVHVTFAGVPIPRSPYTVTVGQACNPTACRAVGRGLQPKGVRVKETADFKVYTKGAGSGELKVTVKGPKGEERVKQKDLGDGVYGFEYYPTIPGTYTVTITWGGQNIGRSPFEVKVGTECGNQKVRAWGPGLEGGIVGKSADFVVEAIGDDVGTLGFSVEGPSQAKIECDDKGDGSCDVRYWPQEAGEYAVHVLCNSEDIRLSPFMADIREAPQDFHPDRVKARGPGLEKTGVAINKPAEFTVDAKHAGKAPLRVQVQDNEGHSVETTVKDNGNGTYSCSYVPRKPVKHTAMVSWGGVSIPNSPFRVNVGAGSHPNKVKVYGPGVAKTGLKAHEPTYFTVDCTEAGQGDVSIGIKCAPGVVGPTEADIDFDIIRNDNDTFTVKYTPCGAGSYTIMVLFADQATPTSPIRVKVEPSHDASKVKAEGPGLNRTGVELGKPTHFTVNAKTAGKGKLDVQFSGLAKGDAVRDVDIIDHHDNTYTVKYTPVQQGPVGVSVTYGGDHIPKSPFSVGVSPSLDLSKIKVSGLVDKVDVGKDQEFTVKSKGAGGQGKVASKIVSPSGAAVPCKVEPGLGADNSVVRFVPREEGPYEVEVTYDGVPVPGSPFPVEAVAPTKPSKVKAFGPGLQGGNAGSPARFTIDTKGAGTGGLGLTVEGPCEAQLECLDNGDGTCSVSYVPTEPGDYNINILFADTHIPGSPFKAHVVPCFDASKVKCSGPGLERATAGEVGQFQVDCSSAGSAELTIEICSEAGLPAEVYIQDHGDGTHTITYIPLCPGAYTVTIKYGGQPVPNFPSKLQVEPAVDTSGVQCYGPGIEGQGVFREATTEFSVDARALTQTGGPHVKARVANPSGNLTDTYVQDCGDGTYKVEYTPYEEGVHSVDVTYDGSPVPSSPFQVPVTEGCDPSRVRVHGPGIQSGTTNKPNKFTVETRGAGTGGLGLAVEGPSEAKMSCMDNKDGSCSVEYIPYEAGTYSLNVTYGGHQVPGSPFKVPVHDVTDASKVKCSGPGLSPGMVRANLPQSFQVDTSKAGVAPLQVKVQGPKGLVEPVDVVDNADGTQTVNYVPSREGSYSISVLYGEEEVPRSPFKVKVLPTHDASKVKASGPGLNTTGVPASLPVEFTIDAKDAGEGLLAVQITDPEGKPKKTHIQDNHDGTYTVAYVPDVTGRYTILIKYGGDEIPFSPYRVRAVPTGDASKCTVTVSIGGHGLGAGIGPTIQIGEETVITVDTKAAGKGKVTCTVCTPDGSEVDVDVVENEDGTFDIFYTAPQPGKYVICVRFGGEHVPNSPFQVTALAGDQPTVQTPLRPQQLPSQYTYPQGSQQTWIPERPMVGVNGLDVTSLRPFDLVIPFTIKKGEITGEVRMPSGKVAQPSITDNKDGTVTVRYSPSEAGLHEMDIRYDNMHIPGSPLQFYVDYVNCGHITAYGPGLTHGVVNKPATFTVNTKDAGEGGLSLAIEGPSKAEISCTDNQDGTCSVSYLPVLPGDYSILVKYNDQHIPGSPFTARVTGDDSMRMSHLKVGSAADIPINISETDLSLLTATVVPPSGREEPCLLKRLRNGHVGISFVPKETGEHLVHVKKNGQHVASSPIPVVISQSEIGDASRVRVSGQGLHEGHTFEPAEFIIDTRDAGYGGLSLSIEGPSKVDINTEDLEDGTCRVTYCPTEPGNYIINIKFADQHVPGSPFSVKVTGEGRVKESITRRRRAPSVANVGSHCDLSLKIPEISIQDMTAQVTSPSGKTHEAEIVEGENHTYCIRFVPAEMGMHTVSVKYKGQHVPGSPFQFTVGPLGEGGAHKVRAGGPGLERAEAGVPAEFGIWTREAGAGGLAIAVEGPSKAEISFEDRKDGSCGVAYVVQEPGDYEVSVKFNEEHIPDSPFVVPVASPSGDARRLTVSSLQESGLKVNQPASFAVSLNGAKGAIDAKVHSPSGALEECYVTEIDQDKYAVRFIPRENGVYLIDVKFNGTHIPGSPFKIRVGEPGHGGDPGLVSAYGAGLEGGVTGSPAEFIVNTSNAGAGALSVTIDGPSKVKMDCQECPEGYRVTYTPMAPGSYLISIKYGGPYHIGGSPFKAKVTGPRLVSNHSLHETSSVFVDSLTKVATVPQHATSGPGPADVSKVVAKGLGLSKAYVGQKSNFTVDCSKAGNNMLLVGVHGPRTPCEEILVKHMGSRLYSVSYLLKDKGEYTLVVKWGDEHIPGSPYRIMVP
Source text: The α7nAChR-FLNA complexes in the solubilized synaptosomes were immunoprecipitated with immobilized anti-FLNA and the α7nAChR and FLNA levels in the anti-FLNA immunoprecipitates determined by Western blotting (FIG. 2A) and quantified by densitometry (FIG. 2B). n=3. […] The letter designation “M” that accompanies many of the “C-series” compounds is omitted from FIG. 2, the remaining figures and most discussions of the figures and compounds hereinafter for ease in expression. Structural formulas of the compounds used in this and the other figures are provided hereinafter. […]

ERK2 = assay: Aβ42-induced ERK2 activation (pERK2) in rat frontal cortical synaptosomes; type: cell-based; settings: simultaneous treatment
Protocol: FIG. 3 in two panels as FIG. 3A and FIG. 3B, illustrates that FLNA-binding compounds reduce Aβ-induced α7nAChR-mediated ERK2 signaling. In the same treated synaptosomes used in FIG. 2, levels of phosphorylated (activated) ERK2 were measured in immunoprecipitates of ERK2. […] Immunoprecipitates were determined by Western blotting (FIG. 3A) and quantified for four compounds by densitometry (FIG. 3B). n=3.
Phosphorylation of ERK2 indicates its activation, which leads to tau phosphorylation.

FLNA-α7nAChR association = assay: FLNA association with α7nAChR in organotypic frontocortical slice cultures; type: cell-based, rat; settings: 100 nM Aβ42, 16 hours, compound added simultaneously
Protocol: Tissue was harvested and solubilized, and a specific antibody against FLNA was used to immunoprecipitate FLNA and associated proteins. The FLNA immunoprecipitate was size-fractionated using SDS-PAGE, transferred and probed with specific antibodies directed against each of the following receptors: α7nAChR, TLR4, IR and MOR.
Rat brain slice organotypic culture methods were modified from those published previously. [Adamchik et al., Brain Res Brain Res Protoc 5:153-158 (2000).] FCX slices ([…]) were transferred to sterile, porous Millicell-CM inserts (0.4 μm). Each culture insert unit contained two brain slices and was placed into individual wells of a 12-well culture tray in 2 ml medium: 50% MEM with Earl's salts, 2 mM L-glutamine, 25% Earl's balanced salt solution, 6.5 g/l D-glucose, 20% fetal bovine serum (FBS), 5% horse serum, 25 mM HEPES buffer, pH 7.2, and […]. […]
The level of FLNA-associated α7nAChRs was determined using a co-immunoprecipitation/Western blotting method as described previously. […] The levels of FLNA-associated α7nAChR, TLR4, IR and MOR were assessed by Western blotting using specific antibodies directed against the respective proteins and the blot stripped and re-probed for FLNA for immunoprecipitation/loading control.

α7nAChR = type: cell-based, rat
NMDAR [4] = type: cell-based, rat; settings: slice cultures, 0.1 μM Aβ42
α7nAChR-FLNA complex [5] = molecular target: T3, α7nAChR-FLNA complex (Mus musculus, UniProt Q8BTM8); assay: ICV Aβ42 infusion mouse model: FLNA association with α7nAChR; type: in vivo; settings: 10 mg/kg twice daily; prefrontal cortex and hippocampus
T3 construct: from tissue; host or cells: synaptosomes from prefrontal cortex and hippocampus of treated E129 mice
Protocol: (§1) . The anti-FLNA immunocomplexes were obtained by centrifugation, washed and dissociated using antigen elution buffer. […] The levels of FLNA-associated α7nAChRs and TLR4s were assessed by Western blotting and the blot stripped and re-probed for FLNA for immunoprecipitation/loading control.

TLR4-FLNA complex [6] = molecular target: T4, TLR4-FLNA complex (Mus musculus, UniProt Q8BTM8); assay: ICV Aβ42 infusion mouse model: FLNA association with TLR4; type: in vivo; settings: 10 mg/kg twice daily; prefrontal cortex and hippocampus
T4 construct: from tissue; host or cells: synaptosomes from prefrontal cortex and hippocampus of treated E129 mice
Protocol: as §1

NMDAR [7] = type: in vivo, mouse; settings: 10 mg/kg twice daily
α7nAChR-FLNA complex [8] = molecular target: T5, α7nAChR-FLNA complex (Homo sapiens, UniProt P21333); assay: Postmortem human frontal cortex: α7nAChR-FLNA association; type: cell-based; settings: AD and Aβ42-treated control tissue; 0.1 or 1 nM
T5 construct: from tissue; host or cells: postmortem frontal cortex slices / synaptosomes (AD and control subjects)
Protocol: (§2) Postmortem frontal cortex tissues were gradually thawed (from −80° C. to −20° C.) and were sliced using a chilled McIlwain tissue chopper (200 μm×200 μm×3 mm). […] Following two additional washes with 1 ml of ice-cold K-R, brain slices were suspended in 1 ml of K-R.
(§3) Incubation continued for 1 hour in the dark to minimize light destruction of the test agents. […] Reaction was terminated by the addition of 1.5 ml of ice-cold Ca^2+-free K-R. Tissue slices were harvested by a brief centrifugation and used as the tissue sources for various assays.

TLR4-FLNA complex [9] = molecular target: T6, TLR4-FLNA complex (Homo sapiens, UniProt P21333); assay: Postmortem human frontal cortex: TLR4-FLNA association; type: cell-based; settings: AD and Aβ42-treated control tissue; 0.1 or 1 nM
T6 construct: from tissue; host or cells: postmortem frontal cortex slices / synaptosomes (AD and control subjects)
Protocol: as §2, §3

[10] = tested on: voltage-gated calcium channel-mediated Ca2+ influx; type: cell-based, human; settings: postmortem AD tissue; 1 nM

Structure (SMILES): CN1CCC2(CC1)NCC(=O)N2Cc1ccccc1 [Compound C0105]
- IC50 (FLNA): 0.111 nM
- IC50 [1]: 2.76 pM
- Reduction of Aβ42 binding affinity for α7nAChR ([2]; fresh SK-N-MC cells, n=6): 10,000 fold
- Kd ([2]; read-out: Aβ42 binding affinity for α7nAChR with Compound C0105, SK-N-MC cells): 1 nM
- α7nAChR-FLNA association (ratio α7nAChR/FLNA) (α7nAChR-FLNA complex [3]; 1 or 10 nM compound, simultaneously or 10 minutes prior to Aβ42 (0.1 μM)): statistically different from Aβ42 alone
- α7nAChR-FLNA association (α7nAChR-FLNA complex [3]; simultaneous administration with Aβ42): markedly reduced this coupling
- ERK2 activation (pERK2) (ERK2): greatly suppressed
- Aβ42-induced increase in FLNA-α7nAChR association (FLNA-α7nAChR association): reduced the Aβ42-induced increase in FLNA-α7nAChR association at 0.1, 1 and 10 nM
- Aβ42-induced impairment in α7nAChR function (calcium influx after PNU282987) (α7nAChR): fully restoring function
- Aβ42-induced impairment in NMDAR function (calcium influx after NMDA and glycine) (NMDAR [4]): completely prevented by 1 and 10 nM
- Aβ42-induced increase in FLNA association with α7nAChR (α7nAChR-FLNA complex [5]): reduced Aβ42-induced increases in FLNA associations with both α7nAChR and TLR4
- Aβ42-induced increase in FLNA association with TLR4 (TLR4-FLNA complex [6]): reduced Aβ42-induced increases in FLNA associations with both α7nAChR and TLR4
- Aβ42-induced NMDAR dysfunction (calcium influx after NMDA and glycine) (NMDAR [7]): restored the Aβ42-induced NMDAR dysfunction
- FLNA association with α7nAChR (α7nAChR-FLNA complex [8]): reduces Aβ42-induced FLNA association with α7nAChR and TLR4
- FLNA association with TLR4 (TLR4-FLNA complex [9]): reduces Aβ42-induced FLNA association with α7nAChR and TLR4
- Deficit in depolarization-induced calcium influx [10]: attenuated the deficit
